Laboratory results taken from US11713341B1, “Antimicrobial NCR13 variant peptides” (Vestaron Corporation, priority 2022, dated 2023).
Where a SMILES comes first, the peptide text is derived from it.

Test system: Botrytis cinerea
Experiment: Antimicrobial bioassay (Botrytis cinerea): growth inhibition by OD600
Format: cell-based
Details: for Activity ratio to NCR13a: anti-Botrytis cinerea activity (IC50) relative to comparator NCR13a; for anti-Botrytis activities relative to NCR13a: Botrytis cinerea growth, comparison with NCR13a
Procedure: The antimicrobial effect of the NCR13 variant peptides (NVPs) of the present disclosure were evaluated against the fungal species, Botrytis cinerea. […] The growth of Botrytis cinerea was then assessed via OD600 nm after incubation with a given NVP at room temperature after 96 hours. The IC50 of each peptide analyzed is shown in ppm.
The antimicrobial effect of the NCR13 variant peptides (NVPs) of the present disclosure were evaluated against the fungal species, Botrytis cinerea. […] The growth of Botrytis cinerea was then assessed via OD600 nm after incubation with a given NVP at room temperature after 96 hours.
The NVPs assessed were as follows: NVPM3 (+L) (SEQ ID NO: 5); NVPM5 (+M) (SEQ ID NO: 7); NVPM6 (+F) (SEQ ID NO: 8); NVPM7 (+W) (SEQ ID NO: 9); NVPM9 (+S) (SEQ ID NO: 11); NVPM11 (+Y) (SEQ ID NO: 13); NVPM14 (+D) (SEQ ID NO: 16); and NVPM15 (+E) (SEQ ID NO: 17).
NVPs having an amino acid sequence of SEQ ID NOs: 5, 7, 8, 9, 11, 13, 16, and 17 were generated as described above in Example 1. The peptide, NCR13a, having an amino acid sequence of: […] (SEQ ID NO: 2) was selected as a comparator peptide, with which the antifungal activity of the foregoing NVPs was compared.
The fungal species was Botrytis cinerea was cultured in potato dextrose agar plates. Fungal spores were collected from the agar plates and suspended into de-ionized water, followed by enumeration in a Petroff-Hausser counting chamber (VWR).
The 96-well plates were incubated at room temperature for 96 hours without shaking. The OD600 of the culture plate was determined using SpectraMax plate reader. Relative OD600 was determined by normalizing cell growth to control wells containing neither NVPs nor NCR13a. The OD600 was used to determine IC50.

Structure (SMILES)	IC50 (ppm) (amount required to achieve IC50 in Botrytis cinerea cells, growth by OD600 after 96 hours at room temperature in synthetic fungal medium, 2-fold serial dilution)	Activity ratio to NCR13a	anti-Botrytis activities relative to NCR13a
CC[C@H](C)[C@H](NC(=O)[C@H](CS)NC(=O)[C@H](CCCCN)NC(=O)[C@@H]1CCCN1C(=O)[C@@H](NC(=O)[C@H](CCCCN)NC(=O)[C@@H]1CCCN1C(=O)[C@H](CCCCN)NC(=O)[C@H](CCCNC(=N)N)NC(=O)[C@H](CS)NC(=O)[C@H](C)NC(=O)[C@H](Cc1ccccc1)NC(=O)[C@H](CCCCN)NC(=O)[C@H](CCCCN)NC(=O)[C@H](CS)NC(=O)[C@H](CC(=O)O)NC(=O)[C@H](CCCCN)NC(=O)[C@H](CC(=O)O)NC(=O)[C@H](CO)NC(=O)[C@H](CCC(N)=O)NC(=O)[C@H](CS)NC(=O)[C@@H]1CCCN1C(=O)[C@H](CCCCN)NC(=O)[C@@H](NC(=O)CN)[C@@H](C)O)C(C)C)C(=O)N[C@@H](CC(N)=O)C(=O)NCC(=O)N[C@@H](Cc1ccccc1)C(=O)N[C@@H](CS)C(=O)N[C@@H](CCCCN)C(=O)N[C@@H](CS)C(=O)N[C@H](C(=O)N[C@@H](CCCNC(=N)N)C(=O)O)C(C)C [NCR13a, reference compound] (H-GTKPCQSDKDCKKFACRKPKVPKCINGFCKCVR-OH; N-terminus and C-terminus assumed)	2.36 ppm	1	
CC[C@H](C)[C@H](NC(=O)[C@H](CS)NC(=O)[C@H](CCCCN)NC(=O)[C@@H]1CCCN1C(=O)[C@@H](NC(=O)[C@H](CCCCN)NC(=O)[C@@H]1CCCN1C(=O)[C@H](CCCCN)NC(=O)[C@H](CCCNC(=N)N)NC(=O)[C@H](CS)NC(=O)[C@H](C)NC(=O)[C@H](Cc1ccccc1)NC(=O)[C@H](CCCCN)NC(=O)[C@H](CCCCN)NC(=O)[C@H](CS)NC(=O)[C@H](CC(=O)O)NC(=O)[C@H](CCCCN)NC(=O)[C@H](CC(=O)O)NC(=O)[C@H](CO)NC(=O)[C@H](CCC(N)=O)NC(=O)[C@H](CS)NC(=O)[C@@H]1CCCN1C(=O)[C@H](CCCCN)NC(=O)[C@@H](NC(=O)[C@@H](N)CCC(=O)O)[C@@H](C)O)C(C)C)C(=O)N[C@@H](CC(N)=O)C(=O)NCC(=O)N[C@@H](Cc1ccccc1)C(=O)N[C@@H](CS)C(=O)N[C@@H](CCCCN)C(=O)N[C@@H](CS)C(=O)N[C@H](C(=O)N[C@@H](CCCNC(=N)N)C(=O)O)C(C)C [NVPM15] (H-ETKPCQSDKDCKKFACRKPKVPKCINGFCKCVR-OH; N-terminus and C-terminus assumed)		1.43	improved anti-Botrytis activities relative to NCR13a
CC[C@H](C)[C@H](NC(=O)[C@H](CS)NC(=O)[C@H](CCCCN)NC(=O)[C@@H]1CCCN1C(=O)[C@@H](NC(=O)[C@H](CCCCN)NC(=O)[C@@H]1CCCN1C(=O)[C@H](CCCCN)NC(=O)[C@H](CCCNC(=N)N)NC(=O)[C@H](CS)NC(=O)[C@H](C)NC(=O)[C@H](Cc1ccccc1)NC(=O)[C@H](CCCCN)NC(=O)[C@H](CCCCN)NC(=O)[C@H](CS)NC(=O)[C@H](CC(=O)O)NC(=O)[C@H](CCCCN)NC(=O)[C@H](CC(=O)O)NC(=O)[C@H](CO)NC(=O)[C@H](CCC(N)=O)NC(=O)[C@H](CS)NC(=O)[C@@H]1CCCN1C(=O)[C@H](CCCCN)NC(=O)[C@@H](NC(=O)[C@@H](N)Cc1ccccc1)[C@@H](C)O)C(C)C)C(=O)N[C@@H](CC(N)=O)C(=O)NCC(=O)N[C@@H](Cc1ccccc1)C(=O)N[C@@H](CS)C(=O)N[C@@H](CCCCN)C(=O)N[C@@H](CS)C(=O)N[C@H](C(=O)N[C@@H](CCCNC(=N)N)C(=O)O)C(C)C [NVPM6] (H-FTKPCQSDKDCKKFACRKPKVPKCINGFCKCVR-OH; N-terminus and C-terminus assumed)		1.82	improved anti-Botrytis activities relative to NCR13a
